Measured values taken from paper PMC3253113, “Presenilin Is the Molecular Target of Acidic γ-Secretase Modulators in Living Cells” (PLoS ONE, 2012).
“Also recorded” adds a separate entry of the source. Read-outs that look alike come from different tables or passages of the source. Values belong to the compound of their own block, whether it stands above or below them.

Experiments:
Aβ42 levels = experiment: Aβ42-lowering activity in PS70 cells, sandwich ELISA of conditioned media; details: CHO, 24 h, read-out: IC50 (Aβ42), Aβ42-lowering activity
Aβ38 levels = Aβ38 levels in PS70 cells, sandwich ELISA of conditioned media; details: CHO cells with wild type APP and PSEN1, increasing concentrations
PSEN1-CTF [1] = molecular target: T1, PSEN1-CTF (Homo sapiens, UniProt P49768); experiment: Photo-affinity labeling in living N2a-ANPP cells; format: cell-based; details: live N2a-ANPP cells, 0.2 µM photo-probe, UV 365 and 302 nm
Description: (§1) Subsequently, cells were UV-irradiated on ice for 30 min at 365 nm and for 30 min at 302 nm. As negative controls, UV irradiation was omitted or cells were incubated with DMSO vehicle or compound AR80, which was structurally identical to AR243 but lacked the biotin moiety. Cells were washed and harvested in PBS and incubated with hypotonic buffer (10 mM Tris pH 7.4, 1x protease inhibitor mix) for 10 min on ice. To prepare cellular membranes, cells were passed 10 times through a 30G needle and centrifuged at 800×g, 10 min, 4°C. The post-nuclear supernatant was centrifuged at 18.000×g, 45 min, 4°C. […] The total protein concentration of the membrane preparations was determined by BCA assay, concentrations and volumes of each sample were adjusted, and 5x RIPA buffer was added to a final concentration of 1x RIPA buffer (150 mM NaCl, 1.0% NP-40, 0.5% sodium deoxycholate, 0.1% SDS, […], pH 8.0). […] Protein concentrations were again determined and adjusted to equal levels prior to the addition of streptavidin magnetic beads (Invitrogen). […] The eluted material was separated on 12% Bis-Tris gels and analyzed by Western blotting. Chemiluminescence was recorded with a LAS 3000 ECL camera system (Fuji Photo Film GmbH, Duesseldorf, Germany) or on CL-XPosure film (Fisher Scientific GmbH, Schwerte, Germany).

PSEN1-NTF [2] = molecular target: T2, PSEN1-NTF (Homo sapiens, UniProt P49768); experiment: Photo-affinity labeling in living N2a-ANPP cells; format: cell-based; details: live N2a-ANPP cells, 0.2 µM photo-probe, UV 365 and 302 nm
Description: as §1

APH-1 = APH-1 (Homo sapiens, UniProt Q96BI3); experiment: Photo-affinity labeling in vitro, N2a-ANPP membrane preparations; format: binding; details: N2a-ANPP membranes, 0.25% CHAPSO, 0.5 µM photo-probe, UV
PEN-2 = PEN-2 (Homo sapiens, UniProt Q9NZ42); experiment: as above; format: binding; details: N2a-ANPP membranes, 0.25% CHAPSO, 0.5 µM photo-probe, UV
PSEN1-CTF [3] = molecular target: T1, PSEN1-CTF; experiment: Photo-affinity labeling in vitro, HEK293T membrane preparations; format: binding; design: host or cells: HEK293T membrane preparations
Description: as §1, with “Germany). […]” for “Germany).”

Nicastrin = Nicastrin (Homo sapiens, UniProt Q92542); experiment: Photo-affinity labeling in vitro, N2a-ANPP membrane preparations; format: binding; details: N2a-ANPP membranes, 0.25% CHAPSO, 0.5 µM photo-probe, UV
PSEN1-CTF [4] = molecular target: T1, PSEN1-CTF; experiment: as above; format: binding; details: N2a-ANPP membranes, 0.25% CHAPSO, 0.5 µM photo-probe, UV
endogenous PSEN1-NTF = molecular target: T3, endogenous PSEN1-NTF (Homo sapiens, UniProt P49768); experiment: Photo-affinity labeling in vitro, HEK293T membrane preparations; format: binding
T3 construct: host or cells: HEK293T membrane preparations

N2a-ANPP cells = experiment: Cell viability, alamarBlue reagent; format: cell-based
Description: Cell viability was assessed using the alamarBlue® reagent (Invitrogen). N2a-ANPP cells were seeded at low density in 96-well plates (4000 cells/well) and cultured for 24 h. The cells were then treated in duplicates with increasing concentrations of the respective compounds or DMSO as vehicle for an additional 24 h. 20 µl alamarBlue® was added to cells cultured in 200 µl medium and incubated overnight. Absorbance was measured with a Paradigm™ microplate reader at 570 nm, using 600 nm as the reference wavelength, and percent viability of vehicle control was calculated.

PSEN1-NTF [5] = molecular target: T2, PSEN1-NTF; details: N2a-ANPP membranes, cell-free, 0.5 µM AR243 co-incubated with 100 µM competitor
PSEN1-NTF [6] = molecular target: T2, PSEN1-NTF; experiment: Competition of photo-probe AR243 binding, HEK293T membrane preparations; details: HEK293T membranes, excess of competitor (100 µM)

- IC50 (Aβ42 levels): 190 nM
SMILES: CC(C)C#CC(c1ccc(C2(C(F)(F)F)N=N2)cc1)N1CCC(CC(=O)O)CC1c1ccc(C(F)(F)F)cc1 (centres unmarked) [AR80]

- Photo-affinity labeling of PSEN1-CTF in living cells (Western blotting) (PSEN1-CTF [1]): did not demonstrate binding
- Photo-affinity labeling of APH-1 (Western blotting) (APH-1): did not demonstrate binding
- Photo-affinity labeling of PEN-2 (Western blotting) (PEN-2): did not demonstrate binding
- Photo-affinity labeling of PSEN1-CTF (Western blotting) (PSEN1-CTF [3]): not PSEN1-CTF
- Photo-affinity labeling of Nicastrin (Western blotting) (Nicastrin): did not demonstrate binding
- Photo-affinity labeling of PSEN1-CTF (Western blotting) (PSEN1-CTF [4]): did not demonstrate binding
- Photo-affinity labeling of endogenous PSEN1-NTF (Western blotting) (endogenous PSEN1-NTF): labeling of endogenous PSEN1-NFT
- IC50 (Aβ42 levels): 290 nM
SMILES: O=C(O)CC1CCN(C(C#CCCCCOC(=O)CCCC[C@@H]2SC[C@@H]3NC(=O)N[C@@H]32)c2ccc(C3(C(F)(F)F)N=N3)cc2)C(c2ccc(C(F)(F)F)cc2)C1 (stereo partly drawn) [AR243, 2-(1-(7-((5-((3aS,4S,6aR)-2-oxohexahydro-1H-thieno[3,4-d]imidazol-4-yl)pentanoyl)oxy)-1-(4-(3(trifluoromethyl)-3H-diazirin-3-yl)phenyl)hept-2-yn-1-yl)-2-(4(trifluoromethyl)phenyl)piperidin-4-yl)acetic acid]
- Effect on Aβ38 levels (Aβ38 levels): concomitant increase in Aβ38 levels
- Photo-affinity labeling of PSEN1-NTF in living cells (Western blotting) (PSEN1-NTF [2]): efficient labeling of PSEN1-NTF; also recorded: demonstrated binding of the photo-probe to PSEN1-NTF

- Competition of AR243 binding to PSEN1-NTF (PSEN1-NTF [5]): efficiently reduced the labeling signal
- Displacement of AR243 from PSEN1-NTF (PSEN1-NTF [6]): caused displacement of the photo-probe
- IC50 (Aβ42 levels): 87 nM
SMILES: CC(C)C#CC(c1ccc(Cl)cc1)N1CCC(CC(=O)O)CC1c1ccc(C(F)(F)F)cc1 (centres unmarked) [BB25]
- Concentrations with dose-dependent cytotoxicity (N2a-ANPP cells): > 10 µM

- IC50 (Aβ42 levels): 54 nM
SMILES: COc1cc(-c2cc(C)c(NC(C)c3ccc(F)cc3)nn2)ccc1-n1cnc(C)c1 (centres unmarked) [Compound 1]
- Competition of AR243 binding to PSEN1-NTF (PSEN1-NTF [5]): reduced binding of the photo-probe as effectively as the acidic compound JNJ-40418677

- Competition of AR243 binding to PSEN1-NTF (PSEN1-NTF [5]): only partially competed
- Competition of AR243 binding to PSEN1-NTF (PSEN1-NTF [5]; listed as compound 2): more modest reductions
- IC50 (Aβ42 levels): 77 nM
SMILES: CCOc1cc(C)c(Nc2ccnc(N3CCN(c4ccc(OC)cc4)C(C)(C)C3)n2)cc1C(C)C [Compound 2]

SMILES: COc1cc(/C=C2\CCCN([C@@H](C)c3ccc(F)cc3)C2=O)ccc1-n1cnc(C)c1 [E-2012]
- Competition of AR243 binding to PSEN1-NTF (PSEN1-NTF [5]): more modest reductions; also recorded: only partially competed
- IC50 (Aβ42 levels): 53 nM

SMILES: CC(C)CC(C(=O)O)c1cc(-c2ccc(C(F)(F)F)cc2)cc(-c2ccc(C(F)(F)F)cc2)c1 (centres unmarked) [JNJ-40418677]
- IC50 (Aβ42 levels): 290 nM
